Data taken from patent publication US20250332149A1, “PIPERIDINE COMPOUNDS AND PHARMACEUTICAL COMPOSITIONS” (Lumos Pharma, Inc., priority 2024, published 2025).

Assay: Phase 1 study Part 1: plasma PK and relative bioavailability of LUM-201 tablets vs capsule
Format: in vivo, human
Conditions: for % AUCex, Arithmetic Mean / % AUCex, Geometric Mean / Clast, Arithmetic Mean / Clast, Geometric Mean / DNAUC0-inf, Arithmetic Mean / DNAUC0-inf, Geometric Mean / DNAUC0-last, Arithmetic Mean / DNAUC0-last, Geometric Mean / DNCmax, Arithmetic Mean / DNCmax, Geometric Mean / tlag, Median / tlast, Median / λz, Arithmetic Mean / λz, Geometric Mean / DNAUC0-inf, GLS Mean / DNAUC0-last, GLS Mean / DNCmax, GLS Mean: oral, fasted; for DNAUC0-inf, GLS Mean / DNAUC0-last, GLS Mean / DNCmax, GLS Mean: ANOVA
Text: This study in healthy adult subjects was designed to establish the pharmacokinetic (PK) and pharmacodynamic (PD) profiles for the orally administered test product (coated mini-tablets in a capsule) and reference product (mini-tablet) to evaluate relative bioavailability in Part 1 and to evaluate the food effect on the bioavailability of test product (capsule only) in Part 2.
This was a single center, open-label, randomized, Phase 1 study in healthy adult subjects. This study consisted of 2 parts: Part 1 was a 4-sequence, 4-treatment, 4 Treatment Periods, crossover study to determine the relative bioavailability of current tablets to new capsule formulations of LUM-201; Part 2 was a 2-sequence, 2-treatment, 2 Treatment Periods, crossover study to evaluate the food effect on the bioavailability of the new capsule formulation of LUM-201. An individual subject was allowed to participate in only 1 part (Part 1 or Part 2) of the study. Forty subjects were planned and enrolled in this study. • Part 1: A total of 28 subjects were planned and enrolled in Part 1. Part 1 consisted of 4 sequences, each having 4 Treatment Periods enrolling 7 subjects (1:1:1:1 ratio). During Treatment Periods 1 through 4, each subject received 4 single oral doses of LUM-201 drug product in a randomized, crossover order. • Part 2: A total of 12 subjects were planned and enrolled in Part 2. Part 2 consisted of 2 sequences, each having 2 Treatment Periods enrolling 6 subjects (1:1 ratio). Each subject received a single oral dose of LUM-201 at each Treatment Period. During Treatment Periods 1 and 2, each subject received 2 single oral doses of LUM-201 in a randomized, crossover order. • On Day 1 of Treatment Period 1, subjects were administered the assigned treatment (A or B) as randomized, followed by a washout of at least 3 days between Treatment Periods 1 and 2. Subjects stayed in-house (not discharged) between the Treatment Periods. • Treatment A was dosed at 85.3 mg capsule formulation of LUM-201 (intact capsule consumed unopened) consumed while subject was in a fasted state with 240 mL of water. • Treatment B was dosed at 85.3 mg capsule formulation of LUM-201 (intact capsule consumed unopened) consumed 30 minutes after start of a high-fat meal with 240 mL of water. • Subjects were discharged from the study center on the morning of Day 3 of Treatment Period 2 after the scheduled study assessments had been completed.
• Treatment A (reference): five 18 mg oral tablets of LUM-201 were administered under fasted state with 240 mL of water. • Treatment B (test): a single 85.3 mg dose of oral capsule formulation of LUM-201 was administered as a whole capsule under fasted state with 240 mL of water. • Treatment C (test): a single 85.3 mg dose of oral capsule formulation of LUM-201 was administered by dosing capsule contents (dry) under fasted state with 240 mL of water. • Treatment D (test): a single 85.3 mg dose of oral capsule formulation of LUM-201 was mixed (capsule contents) with banana puree (2 teaspoons), followed by 240 mL of water and was ingested within 5 minutes under fasted state (Note: Banana Puree, single serve cup was used [118.3 mL]). […]

[1] = 85.3 mg capsule, Treatments B, C and D
[2] = Part 1, Treatment A (reference): five 18 mg tablets (90 mg)
[3] = Part 1, Treatment B (test): 85.3 mg whole capsule
[4] = Part 1, Treatment C (test): 85.3 mg capsule contents (dry)
[5] = Part 1, Treatment D (test): 85.3 mg capsule contents in banana puree

bioequivalence of DNAUC0-last and AUC0-inf to the 90 mg tablet, fasted (Treatment A) [1]: bioequivalent
bioequivalence of DNCmax to the 90 mg tablet dose, fasted (Treatment A) [1]: not bioequivalent
% AUCex, Arithmetic Mean [2]: 1.763%
% AUCex, Geometric Mean [2]: 1.652%
Clast, Arithmetic Mean [2]: 0.8783 ng/mL
Clast, Geometric Mean [2]: 0.8225 ng/mL
DNAUC0-inf, Arithmetic Mean [2]: 6.998 ng·h/mL/mg
DNAUC0-inf, Geometric Mean [2]: 6.247 ng·h/mL/mg
DNAUC0-last, Arithmetic Mean [2]: 6.885 ng·h/mL/mg
DNAUC0-last, Geometric Mean [2]: 6.137 ng·h/mL/mg
DNCmax, Arithmetic Mean [2]: 1.464 ng/mL/mg
DNCmax, Geometric Mean [2]: 1.267 ng/mL/mg
tlag, Median [2]: 0 h
tlast, Median [2]: 36.34 h
λz, Arithmetic Mean [2]: 0.0901 h⁻¹
λz, Geometric Mean [2]: 0.0886 h⁻¹
DNAUC0-inf, GLS Mean [2]: 6.25 ng·h/mL/mg
DNAUC0-last, GLS Mean [2]: 6.14 ng·h/mL/mg
DNCmax, GLS Mean [2]: 1.27 ng/mL/mg
% AUCex, Arithmetic Mean [3]: 1.748%
% AUCex, Geometric Mean [3]: 1.630%
Clast, Arithmetic Mean [3]: 0.7461 ng/mL
Clast, Geometric Mean [3]: 0.7189 ng/mL
DNAUC0-inf, Arithmetic Mean [3]: 6.638 ng·h/mL/mg
DNAUC0-inf, Geometric Mean [3]: 6.008 ng·h/mL/mg
DNAUC0-last, Arithmetic Mean [3]: 6.534 ng·h/mL/mg
DNAUC0-last, Geometric Mean [3]: 5.903 ng·h/mL/mg
DNCmax, Arithmetic Mean [3]: 1.353 ng/mL/mg
DNCmax, Geometric Mean [3]: 1.092 ng/mL/mg
tlag, Median [3]: 0.2494 h
tlast, Median [3]: 47.93 h
λz, Arithmetic Mean [3]: 0.0877 h⁻¹
λz, Geometric Mean [3]: 0.086 h⁻¹
DNAUC0-inf, GLS Mean [3]: 5.97 ng·h/mL/mg
DNAUC0-last, GLS Mean [3]: 5.86 ng·h/mL/mg
DNCmax, GLS Mean [3]: 1.09 ng/mL/mg
% AUCex, Arithmetic Mean [4]: 1.859%
% AUCex, Geometric Mean [4]: 1.673%
Clast, Arithmetic Mean [4]: 0.7612 ng/mL
Clast, Geometric Mean [4]: 0.7309 ng/mL
DNAUC0-inf, Arithmetic Mean [4]: 6.832 ng·h/mL/mg
DNAUC0-inf, Geometric Mean [4]: 6.259 ng·h/mL/mg
DNAUC0-last, Arithmetic Mean [4]: 6.721 ng·h/mL/mg
DNAUC0-last, Geometric Mean [4]: 6.142 ng·h/mL/mg
DNCmax, Arithmetic Mean [4]: 1.159 ng/mL/mg
DNCmax, Geometric Mean [4]: 1.014 ng/mL/mg
tlag, Median [4]: 0 h
tlast, Median [4]: 48.07 h
λz, Arithmetic Mean [4]: 0.0829 h⁻¹
λz, Geometric Mean [4]: 0.0818 h⁻¹
DNAUC0-inf, GLS Mean [4]: 6.21 ng·h/mL/mg
DNAUC0-last, GLS Mean [4]: 6.10 ng·h/mL/mg
DNCmax, GLS Mean [4]: 1.01 ng/mL/mg
% AUCex, Arithmetic Mean [5]: 1.932%
% AUCex, Geometric Mean [5]: 1.703%
Clast, Arithmetic Mean [5]: 0.8723 ng/mL
Clast, Geometric Mean [5]: 0.7962 ng/mL
DNAUC0-inf, Arithmetic Mean [5]: 7.377 ng·h/mL/mg
DNAUC0-inf, Geometric Mean [5]: 6.400 ng·h/mL/mg
DNAUC0-last, Arithmetic Mean [5]: 7.254 ng·h/mL/mg
Compound: CC(C)(N)C(=O)N[C@H](COCc1ccccc1)C(=O)N1CCC2(CC1)CN(S(C)(=O)=O)c1ccccc12 [LUM-201, N-[1(R)-[(1,2-dihydro-1-methanesulfonylspiro[3H-indole-3,4′-piperdin]-yl)carbonyl]-2-(phenylmethyloxy)ethyl]-2-amino-2-methylpropanamide methanesulfonate]
